Data: ChEMBL document CHEMBL1155894, “Novel analogues of istaroxime, a potent inhibitor of Na+,K+-ATPase: synthesis and structure-activity relationship” (J Med Chem, 2008)

What was measured:
[1] = Inhibition of dog kidney Na+,K+-ATPase by [32P]ATP hydrolysis method; parameters: species or system Canis lupus familiaris
Cavia porcellus [2] = assay: […] effect in anesthetized guinea pig assessed as drug level inducing maximun increase in dP/dtmax response relative to control; type: functional
Cavia porcellus [3] = assay: […] effect in anesthetized guinea pig assessed as increase in dP/dtmax response relative to control; type: functional
Cavia porcellus [4] = assay: […] effect in anesthetized guinea pig assessed as drug level inducing increase in dP/dtmax response; type: functional
Cavia porcellus [5] = species: Cavia porcellus; assay: Ratio of toxic lethal dose to ED80 for inotropic activity in guinea pig; type: functional
Cavia porcellus [6] = species: Cavia porcellus; assay: Toxicity in guinea pig assessed as induction of death; type: organism-based; conditions: in vivo

Structure (SMILES)	IC50 [1] [nM]	Activity (Cavia porcellus [2]) [µmol/kg]	Emax (Cavia porcellus [3]) [%]	ED80 (Cavia porcellus [4]) [µmol/kg]	Ratio (Cavia porcellus [5])	Activity (Cavia porcellus [6])
C[C@]12CC/C(=N/O[C@@H]3CCNC3)C[C@@H]1[C@@H](O)C[C@@H]1[C@@H]2CC[C@]2(C)C(=O)CC[C@@H]12	220	9.62	216	1.64	21	
CN1CC[C@H](O/N=C2/CC[C@@]3(C)[C@H](C2)C(=O)C[C@@H]2[C@@H]3CC[C@]3(C)C(=O)CC[C@@H]23)C1	40500					
C[C@]12CC/C(=N/O[C@@H]3CCNC3)C[C@@H]1[C@H](O)C[C@@H]1[C@@H]2CC[C@]2(C)C(=O)CC[C@@H]12	850	44.8	256	3.92	49.1	Toxic
C[C@]12CC/C(=N/O[C@H]3CCNC3)C[C@@H]1[C@@H](O)C[C@@H]1[C@@H]2CC[C@]2(C)C(=O)CC[C@@H]12	910					
C[C@]12CC/C(=N\OC[C@H]3CCCN3)C[C@@H]1C(=O)C[C@@H]1[C@@H]2CC[C@]2(C)C(=O)CC[C@@H]12	23000					
C[C@]12CC/C(=N\OC3CCNCC3)C[C@@H]1C(=O)C[C@@H]1[C@@H]2CC[C@]2(C)C(=O)CC[C@@H]12	1100					
C[C@]12CC/C(=N/O[C@@H]3CCNC3)C[C@@H]1C(=O)C[C@@H]1[C@@H]2CC[C@]2(C)C(=O)CC[C@@H]12	250	43.5	114	27.7	>3.6	Non-toxic
CN1CC[C@@H](O/N=C2/CC[C@@]3(C)[C@H](C2)C(=O)C[C@@H]2[C@@H]3CC[C@]3(C)C(=O)CC[C@@H]23)C1	1300					
CC12CCC3C(CC(=O)C4CC(=NOCCN)CCC43C)C1CCC2=O (configuration not stated)	110	5.74	182	1.82	25.6	
CNCCCO/N=C1/CC[C@@]2(C)[C@H](C1)C(=O)C[C@@H]1[C@@H]2CC[C@]2(C)C(=O)CC[C@@H]12	230					
C[C@]12CC/C(=N/OCCNC(=N)N)C[C@@H]1C(=O)C[C@@H]1[C@@H]2CC[C@]2(C)C(=O)CC[C@@H]12	12000					
C[C@H](N)CO/N=C1/CC[C@@]2(C)[C@H](C1)C(=O)C[C@@H]1[C@@H]2CC[C@]2(C)C(=O)CC[C@@H]12	370					
C[C@]12CC/C(=N/OCCCCN)C[C@@H]1C(=O)C[C@@H]1[C@@H]2CC[C@]2(C)C(=O)CC[C@@H]12	1800					
C[C@]12CC/C(=N/O[C@H]3CCNC3)C[C@@H]1C(=O)C[C@@H]1[C@@H]2CC[C@]2(C)C(=O)CC[C@@H]12	240					
CC(C)(CN)O/N=C1/CC[C@@]2(C)[C@H](C1)C(=O)C[C@@H]1[C@@H]2CC[C@]2(C)C(=O)CC[C@@H]12	21					
CC(C)(N)CO/N=C1/CC[C@@]2(C)[C@H](C1)C(=O)C[C@@H]1[C@@H]2CC[C@]2(C)C(=O)CC[C@@H]12	28500					
C[C@]12CC/C(=N\O[C@@H]3CCNC3)C[C@@H]1C(=O)C[C@@H]1[C@@H]2CC[C@]2(C)C(=O)CC[C@@H]12	16	2.65	186	0.75	8	Toxic
CNCCCO/N=C1/CC[C@@]2(C)[C@H](C1)C(O)C[C@@H]1[C@@H]2CC[C@]2(C)C(=O)CC[C@@H]12 (some centres not stated)	920	8.95	77		<17	Toxic
C[C@H]1O[C@@H](O[C@H]2[C@@H](O)C[C@H](O[C@H]3[C@@H](O)C[C@H](O[C@H]4CC[C@@]5(C)[C@H](CC[C@@H]6[C@@H]5C[C@@H](O)[C@]5(C)[C@@H](C7=CC(=O)OC7)CC[C@]65O)C4)O[C@@H]3C)O[C@@H]2C)C[C@H](O)[C@@H]1O [DIGOXIN]	220	0.97	127	0.41	3.2	Toxic
C[C@]12CC/C(=N\OC3CCCNC3)C[C@@H]1C(=O)C[C@@H]1[C@@H]2CC[C@]2(C)C(=O)CC[C@@H]12 (mixture of isomers)	33000					
CCCON=C1CC[C@@]2(C)[C@H](C1)C(=O)C[C@@H]1[C@@H]2CC[C@]2(C)C(=O)CC[C@@H]12	56	6.79	260	1.03	20.8	Toxic
C[C@]12CCC(=NO[C@@H]3CCNC3)C[C@@H]1C(=O)C[C@@H]1[C@@H]2CC[C@]2(C)C(=O)CC[C@@H]12	26	8.09	223	2.01	12	
CNCCO/N=C1/CC[C@@]2(C)[C@H](C1)C(=O)C[C@@H]1[C@@H]2CC[C@]2(C)C(=O)CC[C@@H]12	690					
C[C@]12CC/C(=N\OC[C@@H]3CCCN3)C[C@@H]1C(=O)C[C@@H]1[C@@H]2CC[C@]2(C)C(=O)CC[C@@H]12	11000					
C[C@@H](N)CO/N=C1/CC[C@@]2(C)[C@H](C1)C(=O)C[C@@H]1[C@@H]2CC[C@]2(C)C(=O)CC[C@@H]12	380					
C[C@]12CC/C(=N/OC3CNC3)C[C@@H]1C(=O)C[C@@H]1[C@@H]2CC[C@]2(C)C(=O)CC[C@@H]12	100					
C[C@]12CC/C(=N/OCCN)C[C@@H]1C(=O)C[C@@H]1[C@@H]2CC[C@]2(C)C(=O)CC[C@@H]12	630	12.1	235	3.36	22.5	
